Experimental data reported in patent US20260007612A1, “Novel Ionizable Cationic Lipids” (Vivasor, Inc., priority 2022, published 2026).

Assays:
[1] = Lipid nanoparticle characterization (size, PDI, zeta potential, encapsulation efficiency); type: physicochemical; conditions: Fresh samples; LNP of named lipid:DSPC:Cholesterol:GM020=50:10:38.5:1.5 (DS-001 25:10:38.5:1.5); 250 μg mRNA
Procedure: Lipid nanoparticles were prepared with the following compositions: • ALC-0315:DSPC:Cholesterol:GM020=50:10:38.5:1.5 (and buffer) (positive control) • TU-001:DSPC:Cholesterol:GM020=50:10:38.5:1.5 (and buffer) • TU-002:DSPC:Cholesterol:GM020=50:10:38.5:1.5 (and buffer) • TU-003:DSPC:Cholesterol:GM020=50:10:38.5:1.5 (and buffer) • TU-004:DSPC:Cholesterol:GM020=50:10:38.5:1.5 (and buffer) • TU-005:DSPC:Cholesterol:GM020=50:10:38.5:1.5 (and buffer) • TU-006:DSPC:Cholesterol:GM020=50:10:38.5:1.5 (and buffer) • TU-007:DSPC:Cholesterol:GM020=50:10:38.5:1.5 (and buffer) • TU-008:DSPC:Cholesterol:GM020=50:10:38.5:1.5 (and buffer) • TU-009:DSPC:Cholesterol:GM020=50:10:38.5:1.5 (and buffer) • BAE-001:DSPC:Cholesterol:GM020=50:10:38.5:1.5 (and buffer) • BAA-001:DSPC:Cholesterol:GM020=50:10:38.5:1.5 (and buffer) • DS-001:DSPC:Cholesterol:GM020=25:10:38.5:1.5 (and buffer) • KT-001:DSPC:Cholesterol:GM020=50:10:38.5:1.5 (and buffer) • Where buffer is water, Trehalose, Tris Base, sodium chloride. DSPC is 1,2-distearoyl-sn-glycero-3-phosphocholine. GM020 is DMG-PEG (1,2-Dimyristoyl-rac-glycero-3-methylpolyoxyethylene).
Table 1 summarizes the lipid nanoparticle characterization with respect to various parameters including nanoparticle size (Z avg), polydispersity index (PDI), charge (Zeta potential), encapsulation efficiency and yield.

[2] = test system: female Balb/c mice; experiment: In vivo efficacy of SARS-CoV-2 Spike mRNA in lipid nanoparticle formulation: serum anti-Spike IgG by ELISA; conditions: FIGS. 1C-D, intramuscular, 28 days following injection

In the case of `CCCCCCCCC(CCCCCC)C(=O)OCCCCCCN(CCCCO)CCC(=O)OCCCCOC(=O)CCN(CCCCO)CCCCCCOC(=O)C(CCCCCC)CCCCCCCC` (stereo not shown) [BAE-001], the “Encapsulation Efficiency” value [1] is reported as 83.32%, the PDI [1] is reported as 0.141 and the “Z Avg.” value [1] is reported as 111.7 nm. For the same compound, the “Zeta Potential” value [1] was −0.28 mV.

With `CCCCCCCCC(CCCCCC)C(=O)OCCCN(CCCOC(=O)C(CCCCCC)CCCCCCCC)C(=S)NCCCN(CC)CC` (stereo not shown) [TU-006] the “Encapsulation Efficiency” value [1] was 81.48%, the PDI [1] was 0.278 and the “Z Avg.” value [1] was 68.84 nm. For the same compound, the “Zeta Potential” value [1] was −0.642 mV.

In the case of `CCCCCCCCC(CCCCCC)C(=O)OCCCN(CCCOC(=O)C(CCCCCC)CCCCCCCC)C(=S)NCCCN` (stereo not shown) [TU-005], the “Encapsulation Efficiency” value [1] is reported as 97.66%, the PDI [1] is reported as 0.282 and the “Z Avg.” value [1] is reported as 176.9 nm. For the same compound, the “Zeta Potential” value [1] was −0.842 mV.

With `CCCCCCCCC(CCCCCC)C(=O)OCCCN(CCCOC(=O)C(CCCCCC)CCCCCCCC)C(=S)NCCCNC(C)C` (stereo not shown) [TU-008] the “Encapsulation Efficiency” value [1] was 97.75%, the PDI [1] was 0.253 and the “Z Avg.” value [1] was 64.64 nm. The “Zeta Potential” value [1] was −1.07 mV.

With `CCCCCCCCC(CCCCCC)C(=O)OCCCN(CCCOC(=O)C(CCCCCC)CCCCCCCC)C(=S)NCCCN(CCC)CCC` (stereo not shown) [TU-007] the “Encapsulation Efficiency” value [1] was 78.96%, the PDI [1] was 0.156 and the “Z Avg.” value [1] was 63.30 nm. The “Zeta Potential” value [1] was −2.68 mV.

In the case of `CCCCCCCCC(CCCCCC)C(=O)OCCCN(CCCOC(=O)C(CCCCCC)CCCCCCCC)C(=S)NCCCN1CCN(C)CC1` (stereo not shown) [TU-004], the “Encapsulation Efficiency” value [1] is reported as 72.53%, the PDI [1] is reported as 0.24 and the “Z Avg.” value [1] is reported as 79.77 nm. For the same compound, the “Zeta Potential” value [1] was −1.27 mV.

In the case of `CCCCCCCCC(CCCCCC)C(=O)OCCCN(CCCOC(=O)C(CCCCCC)CCCCCCCC)C(=S)NCCCN1CCOCC1` (stereo not shown) [TU-002], the “Encapsulation Efficiency” value [1] is reported as 80.64%, the PDI [1] is reported as 0.133 and the “Z Avg.” value [1] is reported as 76.99 nm. The “Zeta Potential” value [1] was −2.55 mV.

In the case of `CCCCCCCCC(CCCCCC)C(=O)OCCCN(CCCOC(=O)C(CCCCCC)CCCCCCCC)C(=S)NCCCN1CCCCC1C` (stereo not shown) [TU-003], the “Encapsulation Efficiency” value [1] is reported as 90.47%, the PDI [1] is reported as 0.23 and the “Z Avg.” value [1] is reported as 73.29 nm. The “Zeta Potential” value [1] was −0.56 mV.

In the case of `CCCCCCCCC(CCCCCC)C(=O)OCCCCCCN(CCCCO)CCCCCCOC(=O)C(CCCCCC)CCCCCCCC` (stereo not shown) [ALC-0315, reference compound], the “Encapsulation Efficiency” value [1] is reported as 83.16%, the PDI [1] is reported as 0.223 and the “Z Avg.” value [1] is reported as 78.67 nm. For the same compound, the “Zeta Potential” value [1] was −4.74 mV.

For `CCCCCCCCCC1(CCCCCC)OCC(CCCCN(CCCCO)CCCCC2COC(CCCCCC)(CCCCCCCCC)O2)O1` (stereo not shown) [KT-001], the “Encapsulation Efficiency” value [1] was 80.60%, the PDI [1] was 0.08 and the “Z Avg.” value [1] was 84.7 nm. The “Zeta Potential” value [1] was −3.30 mV and the “amount of anti-Spike antibody (of SARS-CoV-2) produced in mice” value [2] was “largest amounts”.

With `CCCCCCCCC(CCCCCC)C(=O)OCCCN(CCCOC(=O)C(CCCCCC)CCCCCCCC)C(=S)NCCCN(CCCC)CCCC` (stereo not shown) [TU-009] the “Encapsulation Efficiency” value [1] was 80.76%, the PDI [1] was 0.188 and the “Z Avg.” value [1] was 64.82 nm. The “Zeta Potential” value [1] was −4.40 mV.

With `CCCCCCCCC(CCCCCC)C(=O)OCCCCCCN(CCCCCCOC(=O)C(CCCCCC)CCCCCCCC)CCCCNC(=O)OCCSSCCOC(=O)NCCCCN(CCCCCCOC(=O)C(CCCCCC)CCCCCCCC)CCCCCCOC(=O)C(CCCCCC)CCCCCCCC` (stereo not shown) [DS-001] the “Encapsulation Efficiency” value [1] was 84.50%, the PDI [1] was 0.12 and the “Z Avg.” value [1] was 63.0 nm. The “Zeta Potential” value [1] was −3.74 mV.
